Test results published in US20240168030A1, “DIRECT FLUORESCENT GLYCAN LABELING” (BIO-TECHNE CORPORATION, priority 2019, published 2024).

T1: ST6GalNAc1 (Homo sapiens, UniProt Q9NSC7)
T1 construct: purchased R&D Systems (Bio-Techne, Minneapolis, MN)
T1 sequence (Q9NSC7 1-600): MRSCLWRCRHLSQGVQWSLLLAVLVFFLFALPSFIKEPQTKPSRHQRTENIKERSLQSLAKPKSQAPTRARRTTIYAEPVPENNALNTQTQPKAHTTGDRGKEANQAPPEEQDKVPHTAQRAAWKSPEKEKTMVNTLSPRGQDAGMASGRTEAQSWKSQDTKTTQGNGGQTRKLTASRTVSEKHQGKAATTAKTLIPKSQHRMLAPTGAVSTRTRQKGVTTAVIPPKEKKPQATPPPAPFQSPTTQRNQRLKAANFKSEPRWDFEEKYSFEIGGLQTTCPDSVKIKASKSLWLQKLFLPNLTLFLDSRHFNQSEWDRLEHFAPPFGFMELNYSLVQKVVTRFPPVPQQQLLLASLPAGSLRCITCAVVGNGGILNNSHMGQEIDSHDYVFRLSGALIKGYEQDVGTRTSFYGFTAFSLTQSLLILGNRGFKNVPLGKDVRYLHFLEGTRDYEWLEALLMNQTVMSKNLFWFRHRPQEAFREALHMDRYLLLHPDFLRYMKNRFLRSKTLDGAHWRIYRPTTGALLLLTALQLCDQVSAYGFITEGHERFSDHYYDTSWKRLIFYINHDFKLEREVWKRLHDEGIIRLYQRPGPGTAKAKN

T2: ST3Gal1 (Homo sapiens, UniProt Q11201)
T2 construct: purchased R&D Systems (Bio-Techne, Minneapolis, MN)
T2 sequence (Q11201 1-340): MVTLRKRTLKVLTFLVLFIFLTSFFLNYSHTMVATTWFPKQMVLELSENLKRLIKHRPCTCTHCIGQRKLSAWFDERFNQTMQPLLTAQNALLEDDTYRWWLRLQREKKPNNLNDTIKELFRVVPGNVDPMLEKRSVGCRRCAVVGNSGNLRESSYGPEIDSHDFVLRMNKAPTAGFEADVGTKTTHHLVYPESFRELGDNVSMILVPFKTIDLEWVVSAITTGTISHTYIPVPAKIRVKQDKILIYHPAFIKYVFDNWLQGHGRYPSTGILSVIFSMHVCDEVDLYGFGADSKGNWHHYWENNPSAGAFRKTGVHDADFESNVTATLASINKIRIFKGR

T3: ST6GalNAc2 (Homo sapiens, UniProt Q9UJ37)
T3 sequence (Q9UJ37 1-374): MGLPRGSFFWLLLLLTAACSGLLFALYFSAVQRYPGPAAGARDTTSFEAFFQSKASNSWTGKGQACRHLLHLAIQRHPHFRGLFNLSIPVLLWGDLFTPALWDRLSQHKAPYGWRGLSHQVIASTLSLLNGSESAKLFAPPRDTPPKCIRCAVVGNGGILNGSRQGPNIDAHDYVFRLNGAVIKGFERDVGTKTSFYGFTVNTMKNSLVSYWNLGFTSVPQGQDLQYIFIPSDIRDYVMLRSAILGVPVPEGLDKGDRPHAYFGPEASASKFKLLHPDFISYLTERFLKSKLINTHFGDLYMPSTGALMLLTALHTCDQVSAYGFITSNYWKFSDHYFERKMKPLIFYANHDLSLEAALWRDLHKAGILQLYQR

T4: ST3Gal2 (Homo sapiens, UniProt Q16842)
T4 construct: purchased R&D Systems (Bio-Techne, Minneapolis, MN)
T4 sequence (Q16842 1-350): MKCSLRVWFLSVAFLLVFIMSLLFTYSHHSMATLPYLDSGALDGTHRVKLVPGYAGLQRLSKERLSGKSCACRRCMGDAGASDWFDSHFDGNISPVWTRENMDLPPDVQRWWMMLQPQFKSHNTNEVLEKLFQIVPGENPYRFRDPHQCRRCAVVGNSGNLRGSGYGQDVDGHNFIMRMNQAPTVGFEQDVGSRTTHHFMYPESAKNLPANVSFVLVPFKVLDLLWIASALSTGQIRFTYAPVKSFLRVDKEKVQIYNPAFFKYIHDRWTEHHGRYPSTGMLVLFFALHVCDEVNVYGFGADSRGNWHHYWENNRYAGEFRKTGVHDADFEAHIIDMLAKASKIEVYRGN

T5: ST6GalNAc4 (Homo sapiens, UniProt Q9H4F1)
T5 construct: purchased R&D Systems (Bio-Techne, Minneapolis, MN)
T5 sequence (Q9H4F1 1-302): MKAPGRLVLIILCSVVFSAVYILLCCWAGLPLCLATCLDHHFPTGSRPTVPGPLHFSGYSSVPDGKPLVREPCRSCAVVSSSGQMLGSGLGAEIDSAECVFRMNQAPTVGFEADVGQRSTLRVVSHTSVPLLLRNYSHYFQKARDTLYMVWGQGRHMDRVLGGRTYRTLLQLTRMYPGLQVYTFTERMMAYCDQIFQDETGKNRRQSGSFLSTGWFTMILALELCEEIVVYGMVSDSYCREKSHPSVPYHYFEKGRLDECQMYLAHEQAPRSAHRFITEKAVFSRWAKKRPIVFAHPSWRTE

T6: ST6Gal1 (Homo sapiens, UniProt P15907)
T6 construct: purchased R&D Systems (Bio-Techne, Minneapolis, MN)
T6 sequence (P15907 1-406): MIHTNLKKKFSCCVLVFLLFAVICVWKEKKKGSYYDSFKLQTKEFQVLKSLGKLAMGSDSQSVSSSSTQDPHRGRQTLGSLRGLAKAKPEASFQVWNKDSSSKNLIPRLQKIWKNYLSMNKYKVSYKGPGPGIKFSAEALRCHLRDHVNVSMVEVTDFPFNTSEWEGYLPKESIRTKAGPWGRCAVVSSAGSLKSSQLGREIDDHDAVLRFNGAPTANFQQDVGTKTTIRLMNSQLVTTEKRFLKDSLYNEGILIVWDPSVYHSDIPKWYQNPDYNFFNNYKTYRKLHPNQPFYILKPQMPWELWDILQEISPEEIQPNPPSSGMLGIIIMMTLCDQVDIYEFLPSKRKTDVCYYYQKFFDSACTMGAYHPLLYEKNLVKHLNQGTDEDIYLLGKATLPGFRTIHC

T7: ST3Gal4 (Homo sapiens, UniProt Q11206)
T7 construct: purchased R&D Systems (Bio-Techne, Minneapolis, MN)
T7 sequence (Q11206 1-333): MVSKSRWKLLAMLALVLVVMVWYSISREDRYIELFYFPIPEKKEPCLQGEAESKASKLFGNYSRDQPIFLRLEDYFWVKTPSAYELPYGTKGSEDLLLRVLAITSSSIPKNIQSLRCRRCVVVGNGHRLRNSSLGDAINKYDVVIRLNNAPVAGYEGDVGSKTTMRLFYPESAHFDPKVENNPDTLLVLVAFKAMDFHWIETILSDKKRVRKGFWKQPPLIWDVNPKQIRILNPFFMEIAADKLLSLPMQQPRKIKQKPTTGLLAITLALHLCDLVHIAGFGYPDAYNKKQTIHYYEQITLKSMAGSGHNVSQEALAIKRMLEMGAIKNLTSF


Columns and labels:
ST6GalNAc1 = biological target: T1, ST6GalNAc1; assay: DFGL with fluorophore-conjugated sialic acid by ST6GalNAc1; type: biochemical; parameters: key: +++: indicated by + and − signs only; ++: indicated by + and − signs only; indicated by + and − signs only; indicated by + and − signs only; settings: fluorophore-conjugated sialic acid donor; acceptor O-GalNAc, sialylation on terminal Gal is flexible; FIG. 2
ST3Gal1 = biological target: T2, ST3Gal1; assay: Direct fluorescent glycan labeling (DFGL) with fluorophore-conjugated sialic acid by ST3Gal1; type: biochemical; parameters: key to Relative tolerance of the fluorophore by ST3Gal1: +++: indicated by + and − signs only; ++: indicated by + and − signs only; indicated by + and − signs only; indicated by + and − signs only; settings: fluorophore-conjugated sialic acid donor; acceptor Gal of Core-1 O-glycan; fluorescence intensity of labeled fetuin or asialofetuin in FIG. 2
ST6GalNAc2 = biological target: T3, ST6GalNAc2; assay: DFGL with fluorophore-conjugated sialic acid by ST6GalNAc2; type: biochemical; parameters: key: +++: indicated by + and − signs only; ++: indicated by + and − signs only; indicated by + and − signs only; indicated by + and − signs only; settings: fluorophore-conjugated sialic acid donor; acceptor O-GalNAc, sialylation on terminal Gal is flexible; FIG. 2
ST3Gal2 = biological target: T4, ST3Gal2; assay: DFGL with fluorophore-conjugated sialic acid by ST3Gal2; type: biochemical; parameters: key: +++: indicated by + and − signs only; ++: indicated by + and − signs only; indicated by + and − signs only; indicated by + and − signs only; settings: fluorophore-conjugated sialic acid donor; acceptor Gal of Core-1 O-glycan; fluorescence intensity of labeled fetuin or asialofetuin in FIG. 2
ST6GalNAc4 = biological target: T5, ST6GalNAc4; assay: DFGL with fluorophore-conjugated sialic acid by ST6GalNAc4; type: biochemical; parameters: key to Relative tolerance of the fluorophore by ST6GalNAc4: +++: indicated by + and − signs only; ++: indicated by + and − signs only; indicated by + and − signs only; indicated by + and − signs only
ST6Gal1 = biological target: T6, ST6Gal1; assay: DFGL with fluorophore-conjugated sialic acid by ST6Gal1; type: biochemical; parameters: key to Relative tolerance of the fluorophore by ST6Gal1: +++: indicated by + and − signs only; ++: indicated by + and − signs only; indicated by + and − signs only; indicated by + and − signs only; settings: fluorophore-conjugated sialic acid donor; acceptor Gal of N-glycan; fluorescence intensity of labeled fetuin or asialofetuin in FIG. 2
ST3Gal4 = biological target: T7, ST3Gal4; assay: DFGL with fluorophore-conjugated sialic acid by ST3Gal4; type: biochemical; parameters: key: +++: indicated by + and − signs only; ++: indicated by + and − signs only; indicated by + and − signs only; indicated by + and − signs only; settings: fluorophore-conjugated sialic acid donor; acceptor Gal of N-glycan; fluorescence intensity of labeled fetuin or asialofetuin in FIG. 2
fetuin and asialofetuin = assay: PNGase F and FUCA1 treatment of labeled fetuin and asialofetuin; type: biochemical, bovine; settings: Cy5, FIG. 18B
Method: FIG. 18A-FIG. 18B show characterization of the labeled glycans on fetuin (Fet) and asialofetuin (AF) with PNGase F and FUCA1. FIG. 18A. PNGase F treatment of the labeled samples. […] Fet was labeled by FUT7 (F7) with Alexa Fluor® 488 (blue). Labeled samples were then treated with PNGase F to release the glycans. FIG. 18B. Effect of FUCA1 on the labeling. Samples without or with FUCA1 treatment were labeled by the indicated enzymes with Cy5. All samples were separated on 15% SDS-PAGE and imaged by silver staining, TCE staining and fluorescent imaging as indicated. M, Western blot molecular marker.
For a typical labeling reaction, 1 μg to 5 μg target protein was mixed with 0.2 nmol fluorophore-conjugated GDP-fucose and 0.2 μg of a fucosyltransferase in 30μL 25 mM Tris pH 7.5, 10 mM MnCl2. The mixture was incubated at 37° C. for 30 minutes. […] To release labeled glycans from a glycoprotein, the sample was first denatured by heating at 95° C. for two minutes in the presence of 0.5% SDS and 80 mM β-mercaptoethanol and then renatured with 1% Triton X-100, and finally treated with PNGase F at 10:1 mass ratio at 37° C. for 20 minutes. To release glycans from antibody, a sample was directly treated with Endo S at 10:1 mass ratio at 37° C. for 20 minutes. All samples were separated by sodium dodecyl sulfate—polyacrylamide gel electrophoresis (SDS-PAGE) at volts/cm. […]

Row | Molecule | Relative tolerance of the fluorophore by ST6GalNAc1 (ST6GalNAc1) | Relative tolerance of the fluorophore by ST3Gal1 (ST3Gal1) | Relative tolerance of the fluorophore by ST6GalNAc2 (ST6GalNAc2) | Relative tolerance of the fluorophore by ST3Gal2 (ST3Gal2) | Fluorophore preference of ST6GalNAc4 (ST6GalNAc4; Alexa Fluor® 555 over Cy5, FIG. 2) | Relative tolerance of the fluorophore by ST6GalNAc4 (ST6GalNAc4; fluorophore-conjugated sialic acid donor, acceptor O-GalNAc, with sialylated terminal Gal, FIG. 2) | Relative tolerance of the fluorophore by ST6Gal1 (ST6Gal1) | Relative tolerance of the fluorophore by ST3Gal4 (ST3Gal4) | Change of labeling on FUT7 labeled fetuin after the treatment (fetuin and asialofetuin)
1 | cytidine monophosphate activated Alexa-Fluor® 555-conjugated sialic acid [CMP-AF555-SA] | ++ | ++ | + | +++ | strong preference | +++ | ++ | ++ | 
2 | FUCA1: a lysosomal enzyme that hydrolyze α-fucose residues from glycans (protein, UniProt P04066 32-466, looked up) Tissue alpha-L-fucosidase: QPPRRYTPDWPSLDSRPLPAWFDEAKFGVFIHWGVFSVPAWGSEWFWWHWQGEGRPQYQRFMRDNYPPGFSYADFGPQFTARFFHPEEWADLFQAAGAKYVVLTTKHHEGFTNWPSPVSWNWNSKDVGPHRDLVGELGTALRKRNIRYGLYHSLLEWFHPLYLLDKKNGFKTQHFVSAKTMPELYDLVNSYKPDLIWSDGEWECPDTYWNSTNFLSWLYNDSPVKDEVVVNDRWGQNCSCHHGGYYNCEDKFKPQSLPDHKWEMCTSIDKFSWGYRRDMALSDVTEESEIISELVQTVSLGGNYLLNIGPTKDGLIVPIFQERLLAVGKWLSINGEAIYASKPWRVQWEKNTTSVWYTSKGSAVYAIFLHWPENGVLNLESPITTSTTKITMLGIQGDLKWSTDPDKGLFISLPQLPPSAVPAEFAWTIKLTGVK |  |  |  |  |  |  |  |  | two-fold increase
